Source: PubChem BioAssay (NCI)
Several values for one entry are separate records, joined by “and”; a condition that tells them apart may be missing. Equal entries are not always repeated.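 Dose response: 5 concentrations. Exposure: 48 h. Format: 96-well plates. Endpoint: linear interpolation; highest concentration if not reached. The concentration for 50% growth inhibition is given as GI50. TGI: concentration producing complete growth inhibition.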

Experiments:
Assay in all cases: inhibition of tumour cell growth, NCI panel, 48 h
SNB-75 CNS = test system: SNB-75 CNS
SF-268 CNS = test system: SF-268 CNS
U251 CNS = test system: U251 CNS
K-562 leukemia = test system: K-562 leukemia
OVCAR-5 ovarian = test system: OVCAR-5 ovarian
UACC-257 melanoma = test system: UACC-257 melanoma
A549 NSCLC = test system: A549 NSCLC
CAKI-1 renal = test system: CAKI-1 renal
HCT-116 colon = test system: HCT-116 colon
HCC-2998 colon = test system: HCC-2998 colon

Structure (SMILES) | TGI (SNB-75 CNS) | TGI (SF-268 CNS) [µM] | TGI (U251 CNS) [µM] | TGI (K-562 leukemia) [µM] | TGI (OVCAR-5 ovarian) [µM] | TGI (UACC-257 melanoma) [µM] | TGI (A549 NSCLC) [µM] | TGI (CAKI-1 renal) [µM] | TGI (HCT-116 colon) [µM] | TGI (HCC-2998 colon) [µM] | GI50 (SNB-75 CNS) [µM] | GI50 (SF-268 CNS) [µM] | GI50 (HCC-2998 colon) [µM] | GI50 (U251 CNS) [µM] | GI50 (K-562 leukemia) [µM] | GI50 (OVCAR-5 ovarian) [µM] | GI50 (A549 NSCLC) [µM] | GI50 (CAKI-1 renal) [µM] | GI50 (HCT-116 colon) [µM] | GI50 (UACC-257 melanoma) [µM]
O=C(O)C1CCCCC1c1c2ccc(=O)c(O)c-2oc2c(O)c(O)ccc12 (centres undefined) | > 100 µM | > 100 | 24.8 | 60.6 | > 100 | > 100 | 48.6 | > 100 | 28.4 |  |  |  |  |  |  |  |  |  |  | 
CC(=O)NC1C(OCc2ccccc2)OC(CO)C(O)C1OC(C)C(=O)N[C@@H](C)C(=O)N[C@H](CCC(=O)OCCNc1c2ccccc2nc2cccc([N+](=O)[O-])c12)C(N)=O (some centres undefined) | 0.0405 µM and 0.00887 µM | 0.0343 |  | > 0.1 | 0.0061 | 0.0201 | 0.0173 |  | 0.00243 | 0.00378 |  |  |  |  |  |  |  |  |  | 
ON(Cc1ccccc1)C(=S)c1ccccc1 | > 100 µM | > 100 | 61 | > 100 | > 100 | 39.4 | > 100 |  | 51.6 | 98.1 |  |  |  |  |  |  |  |  |  | 
COc1ccc(C(c2ccc(OCCN(C)C)cc2)c2cc3ccccc3c3ccccc23)cc1 (centres undefined) | 2.74 µM | 3.26 | 2.92 | 3.41 | 3.27 |  | 3.06 | 3.01 | 3.14 | 3.34 | 1.36 | 1.71 | 1.8 | 1.57 | 1.49 | 1.56 | 1.66 | 1.6 | 1.68 | 
COC(=O)C1=C(c2ccc(OC)c(OC)c2)OC(c2cc(OC)c(OC)c(OC)c2)C1 (centres undefined) | 25.6 µM | > 100 | > 100 | > 100 | > 100 | > 100 | > 100 | > 100 |  | > 100 |  |  |  |  |  |  |  |  |  | 
O=C(CC1(O)C(=O)Nc2ccc(Br)cc21)c1ccc(Cl)cc1Cl (centres undefined) | > 100 µM | > 100 | > 100 | > 100 | > 100 | > 100 | > 100 |  | > 100 | > 100 |  |  |  |  |  |  |  |  |  | 
CC(=O)c1c(CN(C)c2ccccc2)n([O-])c2ccccc2[n+]1=O | > 100 µM | 79.9 | > 100 | > 100 | > 100 | > 100 | > 100 |  | > 100 | > 100 | 53 | 24.1 | 30.9 | 29.7 | 28.6 | 31.9 | 47.1 |  | 27.9 | 89.2
COC(=O)C(=CNC(N)=O)C(=O)OC |  | > 100 |  | > 100 | > 100 | > 100 | > 100 | > 100 | > 100 |  |  |  |  |  |  |  |  |  |  | 
O=C(CCC(=O)Nc1ccc(Cl)c(Cl)c1)CC(=O)c1ccc(F)cc1 |  | > 100 | > 100 | > 100 | > 100 | > 100 | > 100 | > 100 | > 100 | > 100 |  |  |  |  |  |  |  |  |  | 
C#CC[N+](C)(CC#C)CC#C | > 100 µM | > 100 |  | > 100 | > 100 | > 100 | > 100 | > 100 |  | > 100 |  |  |  |  |  |  |  |  |  | 
FC(F)(F)c1ccc(-c2cnc(-n3cc(COCCN4CCCCC4)nn3)nc2NC2CCCCCC2)cc1 | 6.4 µM | 7.87 | 6.87 | 7.21 | 8.79 |  | 8.18 | 7.33 | 7 | 7.44 | 2.72 | 3.98 | 3.93 | 3.5 | 1.75 | 4.72 | 4.16 | 3.51 | 3.32 | 
C=C1C(=O)O[C@H]2[C@H]1CC/C(COC(=O)CCSCCC(=O)OC/C1=C/CC[C@@]3(C)O[C@H]3[C@H]3OC(=O)C(=C)[C@@H]3CC1)=C\CC[C@@]1(C)O[C@@H]21 |  | 4.54 | 3.45 | 10.2 | 4.21 | 3.6 | 7.56 | 3.12 | 0.609 | 3.52 |  | 1.63 | 1.89 | 1.39 | 0.371 | 2.11 | 2.54 | 1.62 | 0.206 | 1.64
COc1cc2c(cc1OC)C(Sc1ccc(SC)cc1)c1c(nc(N)c(C#N)c1N)O2 (centres undefined) | 3.16 µM | 3.1 | 2.66 | 5.59 | 3.5 | 3.51 | 3.68 |  | 3.01 | 3.28 | 1.54 | 1.6 | 1.8 | 1.37 | 1.74 | 1.87 | 2.05 |  | 1.62 | 2.07
COc1cc(-c2cc(-c3ccc(Nc4ccnc5cc(Cl)ccc45)cc3)nc(N3CCOCC3)n2)cc(OC)c1OC | 3.44 µM | 5.7 | 3.12 | 10.4 | 4.72 |  | 3.47 |  | 3.34 | > 100 | 1.65 | 2.04 | 3.64 | 1.62 | 0.882 | 2.19 | 1.76 |  | 1.36 | 
COC(=O)/C(=N/Nc1cccc(Cl)c1)C(C(=O)C(=O)Nc1cccc(Cl)c1C)c1nc2ccccc2nc1C (centres undefined) |  | > 100 |  | > 100 | 59.8 | > 100 | > 100 | > 100 | > 100 | > 100 |  |  |  |  |  |  |  |  |  | 
CCCC(C)n1c(C)nc2c1C(=O)c1ccccc1C2=O (centres undefined) | > 100 µM | > 100 | > 100 | > 100 |  | 63.1 | > 100 |  | 19.5 | > 100 |  |  |  |  |  |  |  |  |  | 
O=[N+]([O-])c1ccc(-c2noc(-c3ccc(Cl)cc3)c2C2=NCCN2)cc1 |  | > 100 | > 100 | > 100 | > 100 | > 100 | > 100 | > 100 | > 100 | > 100 |  |  |  |  |  |  |  |  |  | 
Clc1ccc(-c2csc(Nc3cccc(-c4csc(-c5ccccc5)n4)c3)n2)cc1 |  | 19.6 | 14.1 | 16.3 |  | 29 | 43.4 | 25.6 | 18.5 |  |  | 8.68 |  | 7.39 | 7.11 |  | 15.2 | 9.77 | 8.97 | 14.9
Oc1ccc(O)c(-c2cc(-c3ccc(Cl)cc3)nn2-c2ccccc2)c1 |  | 12.2 |  | 12.1 | 10.7 | 19.1 | 31 | 39.6 |  | 4.98 |  | 2.71 | 2.58 |  | 3.23 | 3.11 | 7.56 | 18.8 |  | 4.95
O=C(CSc1ncn[nH]1)C[P+](c1ccccc1)(c1ccccc1)c1ccccc1 | > 100 µM | > 100 |  | > 100 | > 100 | > 100 | > 100 | > 100 |  | > 100 |  |  |  |  |  |  |  |  |  | 
O=S(=O)(O)c1ccc(N=Nc2nc(C(F)(F)F)c(C(F)(F)F)[nH]2)cc1 | > 100 µM | > 100 | > 100 | > 100 | 36 | > 100 | > 100 | 89.4 | > 100 |  |  |  |  |  |  |  |  |  |  | 
NC1=NC(c2ccc(Cl)cc2)N(c2ccc(S(N)(=O)=O)cc2)C(N)=N1 (centres undefined) | > 100 µM | > 100 | > 100 | > 100 | > 100 | > 100 | > 100 | > 100 | > 100 |  |  |  |  |  |  |  |  |  |  | 
Nc1cc(O)ccc1N=Nc1ccc(-c2nc3ccccc3[nH]2)cc1 | > 100 µM | 22.8 | > 100 | > 100 | > 100 | > 100 | > 100 | 82.3 | > 100 |  | > 100 | 3.07 |  | 30.3 | 23 | > 100 | > 100 | 3.51 | 41.2 | 65.3
C[N+](C)(C)CC1CCC/C1=N/O (centres undefined) | > 100 µM | > 100 | > 100 | 44.6 | > 100 | > 100 | > 100 |  | 46 | > 100 |  |  |  |  |  |  |  |  |  | 
COc1ccccc1C1=C(Nc2ccccc2)C(=O)NC1=O | > 25 µM | > 25 | > 25 | > 25 | > 25 |  | > 25 | > 25 | > 25 | > 25 | > 18.1 | > 25 | > 25 | > 25 | > 25 | > 25 | > 25 | > 25 | 24.5 | 
Cc1cc(-c2ccccc2)nc(Nc2nc3ccccc3o2)n1 |  | > 100 | > 100 | > 100 | > 100 | > 100 | > 100 | > 100 | > 100 | > 100 |  |  |  |  |  |  |  |  |  | 
COC(=O)C1C=CCON2CCc3c(n(C)c4ccccc34)C12 (centres undefined) | > 100 µM | > 100 | > 100 | > 100 | > 100 |  | > 100 | > 100 | > 100 | > 100 |  |  |  |  |  |  |  |  |  | 
COC(=O)CCC1CCc2c(OC)ccc(OC)c2C1=O (centres undefined) | > 100 µM | > 100 | > 100 | > 100 | > 100 | > 100 | > 100 |  |  | > 100 |  |  |  |  |  |  |  |  |  | 
